# Positions of bridges follow the written chain, without caps; N, C: chain ends. Non-standard residues stand in square brackets, D forms with d. Residues, ends and D or L forms follow the SMILES beside them. *: point of attachment. X1 = CC[C@H](C)CCCCC(=O)*; Dab = NCC[C@H](N)C(=O)O
# Tests used:
# [1] = Individual steady-state fAUC of colistin in ELF and plasma by clinical and microbiological outcome; assay type: in vivo, human; details: for fAUC, median (IQR): steady state over 24 h
# Procedure: We investigated whether the fAUC values of individual patients were associated with clinical or microbiological outcomes (Table 3). Using individual estimates of CL derived from the final PK model, we calculated the steady-state fAUC for each patient when a total of 3.75 MIU (=300 mg CMS = 112.5 mg CBA) was administered at 6 h intervals four times a day, using the formula AUC = DOSE/CL. The unbound fraction of colistin was assumed to be 10% [25] in the ELF based on the study by Gkoufa et al. and 34% in the plasma based on the study by Mohamed et al.. Gkoufa et al. presented concentration–time profiles of colistin predicted through simulations, assuming unbound fractions in the ELF of 0.01, 0.015, 0.05, and 0.099 [25]. From these, we approximated the unbound fraction at 0.1 by rounding 0.099. Meanwhile, Mohamed et al. determined the unbound fraction in plasma using equilibrium dialysis and reported a measured median (range) colistin unbound fraction of 34% (26–41%).
# The PK/PD index for colistin is the area under the free colistin concentration-–time curve at steady state over 24 h divided by the pathogen minimum inhibitory concentration (fAUC/MIC). Since we were unable to obtain MIC values for A. baumannii, we evaluated the relationship between the PK and PD of colistin by comparing the fAUC of each patient in accordance with their clinical outcomes and microbiological outcomes. AUC was calculated by dividing the daily dose by patient, which was the individual post hoc Bayesian estimate of the developed PK model. […] The Wilcoxon rank-sum test was used to assess the relationships between fAUC and clinical outcomes, and the Kruskal–Wallis test was used to investigate the association between fAUC and microbiological outcomes. Additionally, leveraging typical PK parameter values from final models of ELF and plasma samples, we simulated concentration-time profiles of colistin for nebulization doses of 25 mg, 50 mg, 75 mg, 100 mg, and 125 mg in patients. Subsequently, we generated concentration–time plots and computed fAUC values.
# A. baumannii = details: murine thigh infection model; cited from earlier work
smiles,measurement,setting,value
CC[C@H](C)CCCCC(=O)N[C@@H](CCN)C(=O)N[C@H](C(=O)N[C@@H](CCN)C(=O)N[C@H]1CCNC(=O)[C@H]([C@@H](C)O)NC(=O)[C@H](CCN)NC(=O)[C@H](CCN)NC(=O)[C@H](CC(C)C)NC(=O)[C@@H](CC(C)C)NC(=O)[C@H](CCN)NC1=O)[C@@H](C)O [colistin] (X1-[Dab]T[Dab][Dab][Dab][dL]L[Dab][Dab]T; lactam 4-C),"fAUC, median (IQR)","[1]; ELF, clinical outcome cured/improved, 16 patients, 3.75 MIU CMS/day at 6 h intervals, AUC = dose/CL, bioavailability 9%, unbound fraction 10%",36.7 (18.2–62.9) mg/L·h
same,"fAUC, median (IQR)","[1]; ELF, clinical outcome failed, 4 patients, 3.75 MIU CMS/day, unbound fraction 10%",31.7 (15.4–47.8) mg/L·h
same,"fAUC, median (IQR)","[1]; ELF, microbiological outcome eradicated, 8 patients, 3.75 MIU CMS/day",61.2 (12.5–111) mg/L·h
same,"fAUC, median (IQR)","[1]; ELF, microbiological outcome indeterminate, 2 patients, 3.75 MIU CMS/day",33.9 (30.0–37.9) mg/L·h
same,"fAUC, median (IQR)","[1]; ELF, microbiological outcome persistent, 10 patients, 3.75 MIU CMS/day",28.5 (17.7–50.5) mg/L·h
same,fAUC in ELF relative to plasma,"[1]; cured/improved group, mean values",approximately 27.2 times
same,fAUC in ELF relative to plasma,"[1]; cured/improved group, median values",approximately 26.2 times
same,fAUC in ELF relative to plasma,"[1]; eradicated group, mean values",39.8 times
same,fAUC in ELF relative to plasma,"[1]; eradicated group, median values",26.0 times
same,fAUC in ELF relative to plasma,"[1]; failed group, mean values",about 14.0 times
same,fAUC in ELF relative to plasma,"[1]; failed group, median values",15.9 times
same,fAUC in ELF relative to plasma,"[1]; indeterminate group, mean values",6 times
same,fAUC in ELF relative to plasma,"[1]; indeterminate group, median values",6 times
same,"ELF fAUC, cured/improved relative to treatment failure",[1]; mean values,more than 2.25 times
same,"ELF fAUC, eradicated relative to indeterminate group",[1]; mean values,3.24 times
same,"ELF fAUC, eradicated relative to persistent group",[1]; mean values,3.48 times
same,"ELF fAUC, cured/improved relative to treatment failure",[1]; median values,1.16 times
same,"ELF fAUC, eradicated relative to indeterminate group",[1]; median values,1.80 times
same,"ELF fAUC, eradicated relative to persistent group",[1]; median values,2.15 times
same,fAUC in ELF relative to plasma,"[1]; persistent group, mean values",18.8 times
same,fAUC in ELF relative to plasma,"[1]; persistent group, median values",18.2 times
same,"fAUC, median (IQR)","[1]; plasma, clinical outcome cured/improved, 16 patients, 3.75 MIU CMS/day, unbound fraction 34%",1.40 (0.752–3.74) mg/L·h
same,"fAUC, median (IQR)","[1]; plasma, clinical outcome failed, 4 patients, 3.75 MIU CMS/day, unbound fraction 34%",2.00 (1.87–2.38) mg/L·h
same,"fAUC, median (IQR)","[1]; plasma, microbiological outcome eradicated, 8 patients, 3.75 MIU CMS/day",2.36 (0.645–4.11) mg/L·h
same,"fAUC, median (IQR)","[1]; plasma, microbiological outcome indeterminate, 2 patients, 3.75 MIU CMS/day",5.96 (5.00–6.91) mg/L·h
same,"fAUC, median (IQR)","[1]; plasma, microbiological outcome persistent, 10 patients, 3.75 MIU CMS/day",1.56 (1.00–2.05) mg/L·h
same,fAUC/MIC target values for a 2 log10 kill,A. baumannii,17.5–43.0 mg/L·h

# Source: paper PMC10967270, “Intrapulmonary and Systemic Pharmacokinetics of Colistin Following Nebulization of Low-Dose Colistimethate Sodium in Patients with Ventilator-Associated Pneumonia Caused by Carbapenem-Resistant Acinetobacter baumannii” (Antibiotics, 2024)
